Source: US20100204295A1, “TREATMENT OF ALLERGIC DISEASE WITH IMMUNOMODULATOR COMPOUNDS” (SCICLONE PHARMACEUTICALS, INC., priority 2007, published 2010)

Tested on: BAL cells
Assay: BAL white blood cells and differentials, guinea pig model
Assay type: in vivo, Dunkin-Hartley guinea pigs
Description: Animals were sensitized on day 0 ip with 50 mg/kg OVA. On Days 17, 18, 19, and 20, animals received an ip injection between 8 and 10 am with PBS, SCV-07 at 1 ug/kg, or SCV-07 at 10 ug/kg (Peptide treatment). Between 8 and 10 a.m. on Day 21, animals were administered peptide 2 hours before OVA or saline (NSS) aerosol challenge. 30 min before OVA or NSS aerosol challenge each animal was injected ip with an antihistamine (6.1 mg/kg pyrilamine maleate) to prevent death due to the anaphylactic response that accompanies aerosol OVA challenge. Animals were exposed to aerosol in pairs with either 1% OVA solution or NSS for 5 min in a plexiglass chamber (22×22×29 cm) using a DeVilbiss Model 35B Ultrasonic Nebulizer. Animals were observed during the total 5 min aerosolization and comments recorded. Within 22-24 hours after challenge, animals were euthanized, bled by cardiac puncture, lavaged and lung lobes removed for measurement of cellular infiltration. At the time of OVA or NSS challenge and euthanasia, animal weights ranged from approximately 350-550 g, with the average weight approximately 420 g. This experimental protocol is similar to that used in previously published studies (Regal and Fraser, 1996; Regal et al., 2000). Animals were euthanized with pentobarbital (100-200 mg/kg), bled by cardiac puncture, and lavaged with room temperature PBS. For bronchoalveolar lavage (BAL), the trachea was cannulated and 4 volumes of PBS were introduced into the tracheal cannula and gently withdrawn. Total lavage volume was 60 ml/kg. The BAL was centrifuged to sediment the cells, and the BAL cell pellet re-suspended in 1.0 ml PBS for determination of the total number of white blood cells (WBC) recovered in the BAL of each animal. The BAL supernatant was frozen at −70 C for determination of total protein recovered in the BAL supernatant using the method of Lowry et al. (1951). Total white blood cells in BAL were counted by standard methods in a hemacytometer using Turk's solution. Differential counts were obtained from cytospin preparations of BAL cells (3×10^4 cells) stained with a modified Wrights' stain (Diff Quik, American Scientific Products, McGraw Park, Ill.). Four hundred cells were counted and identified as eosinophils, neutrophils, or mononuclear cells. […] EPO activity from the homogenized lung after lavage was expressed as total OD/min from the left caudal lobe. MPO activity from the homogenized lung after lavage was expressed as total units of enzyme activity from the right caudal lobe. […] OD412 of the BAL supernatant was also determined to estimate the number of RBCS that were lysed during the lavage procedure and prior to re-suspension of the cells for counting. […]

N[C@H](CCC(=O)N[C@@H](Cc1c[nH]c2ccccc12)C(=O)O)C(=O)O [SCV-07, γ-D-glutamyl-L-tryptophan]
Change in BAL neutrophils from NSS to OVA (1 ug/kg, ANOVA contrast vs PBS treatment): differed | Composition of cells in the BAL of control animals challenged with NSS (NSS aerosol, 1 or 10 ug/kg): did not significantly affect | Total eosinophils in the BAL (OVA aerosol challenge): did not change | % eosinophils in the BAL (OVA aerosol challenge, not statistically significant): tended to decrease
